From ChEMBL document CHEMBL1152105, “Anthraquinones related to rhein inhibit glucose uptake into chondrocytes. A mechanism for anti-osteoarthritis drugs?” (1997)

assay: Percent inhibition of glucose uptake into chondrocytes prepared from the metacarpophalageal joints of mature cow at concentration of 50 uM; type: functional; details: Bos taurus

Structure (SMILES) | inhibition at 50 µM
O=C1c2cccc(O)c2C(=O)c2c(O)cc(-c3nn[nH]n3)cc21 | 103%
COc1ccc(OC)c2c1C(=O)c1ccc(-c3nn[nH]n3)cc1C2=O | 81.8%
COc1cc(C(=O)O)c(OC)c2c1C(=O)c1ccccc1C2=O | 14%
CCOc1cccc2c1C(=O)c1c(OCC)cc(C(=O)O)cc1C2=O | 18.5%
COc1cccc2c1C(=O)c1c(OC)cc(C(=O)O)cc1C2=O | -1.9%
CC(=O)Oc1ccc2c(c1)C(=O)c1cc(C(=O)O)ccc1C2=O | 1.6%
COc1cccc2c1C(=O)c1c(OC)cc(-c3nn[nH]n3)cc1C2=O | 36.2%
CCOc1cccc2c1C(=O)c1c(OCC)cc(-c3nn[nH]n3)cc1C2=O | 92%
COc1cc(C(=O)O)cc2c1C(=O)c1c(OC)ccc(OC)c1C2=O | 4.8%
COc1ccc(OC)c2c1C(=O)c1ccc(C(=O)O)cc1C2=O | 25.3%
O=C(O)c1cc(O)c2c(c1)C(=O)c1c(O)ccc(O)c1C2=O | 22.1%
CCOc1ccc(OCC)c2c1C(=O)c1ccc(C(=O)O)cc1C2=O | 37.7%
O=C(O)c1ccc2c(c1)C(=O)c1cc(O)ccc1C2=O | 16.9%
O=C(O)c1cc(O)c2c(c1O)C(=O)c1ccccc1C2=O | 24.9%
CC(=O)Oc1ccc(OC(C)=O)c2c1C(=O)c1ccc(C(=O)O)cc1C2=O | 14.8%
CCCOc1cccc2c1C(=O)c1c(OCCC)cc(C(=O)O)cc1C2=O | 56.7%
Oc1cc(O)c2c(c1)O[C@H](c1ccc(O)c(O)c1)[C@@H](O)C2 [CIANIDANOL] | 12.1%
O=C(CCc1ccc(O)cc1)c1c(O)cc(O)cc1O[C@@H]1O[C@H](CO)[C@@H](O)[C@H](O)[C@H]1O [PHLORIZIN] | 11.9%
O=C(O)c1cc(O)c2c(c1)C(=O)c1cccc(O)c1C2=O [RHEIN] | 3%
